Test results: patent US10576102B2, “KOC1-derived peptide and vaccine including same” (ONCOTHERAPY SCIENCE, INC., priority 2014, dated 2020)
Entries after “also recorded” stand apart in the source; their conditions may differ.

What was measured:
peptide-pulsed C1R-A11 [1] = experiment: IFN-gamma ELISA of CTL lines and CTL clones (HLA-A*1101); assay type: cell-based, human
Description: (§1) CTLs were propagated in culture using methods similar to those disclosed by Riddell et al. (Walter E A et al., N Engl J Med 1995, 333(16): 1038-44; Riddell S R et al., Nat Med 1996, 2(2): 216-23). The CTLs were co-cultured in a total of 25 ml AIM-V medium containing 5% AS (AIM-V/5% AS) and 40 ng/ml anti-CD3 antibody with two types of Mitomycin C-treated human B lymphoblastoid cell lines at 5×10^6 cells/flask. One day after beginning of the culturing, 120 IU/ml IL-2 was added to the culture. On days 5, 8 and 11, a fresh AIM-V/5% AS medium containing 30 IU/ml IL-2 was added to the culture (Tanaka H et al., Br J Cancer 2001, 84(1): 94-9; Umano Y et al., Br J Cancer 2001, 84(8): 1052-7; Uchida N et al., Clin Cancer Res 2004, 10(24): 8577-86; Suda T et al., Cancer Sci 2006, 97(5): 411-9; Watanabe T et al., Cancer Sci 2005, 96(8): 498-506).
Dilution of CTLs was carried out to make 0.3, 1 and 3 cells/well in 96 round-bottomed microtiter plates (Nalge Nunc International). The CTLs were co-cultured with two types of Mitomycin C-treated human B lymphoblastoid cell lines at 1×10^4 cells/well in a total of 150 micro-1/well AIM-V/5% AS medium with 30 ng/ml anti-CD3 antibody and 125 IU/ml IL-2. Ten days later, IL-2 was added to the medium at 50 micro-1/well to reach a final concentration of 125 IU/ml. On day 14, the CTL activity was tested, and the CTL clones were propagated using the same method as described above (Uchida N et al., Clin Cancer Res 2004, 10(24): 8577-86; Suda T et al., Cancer Sci 2006, 97(5): 411-9; Watanabe T et al., Cancer Sci 2005, 96(8): 498-506).
(§2) Specifically, peptide-pulsed C1R-A11 (1×10^4 cells/well) was prepared as the stimulator cell. The induced CTLs, i.e., CTL lines and CTL clones, were used as the responder cell. The IFN-gamma ELISPOT assay and IFN-gamma ELISA were performed according to the manufacturer's manual.

peptide-pulsed C1R-A11 [2] = experiment: In vitro CTL induction, IFN-gamma ELISPOT assay (HLA-A*1101); assay type: cell-based, human; conditions: CTLs induced with peptide-pulsed DCs from HLA-A*1101-positive volunteers; day 21; vs peptide-pulsed C1R-A11, compared with unpulsed control
Description: (§3) C1R (C1R-A11) that stably expresses HLA-A*1101 was used as a stimulator cell. A cDNA encoding the open-reading frame of HLA-A*1101 was amplified by PCR and cloned into an expression vector. C1R cells were transfected with the expression vector, and then selected using G418 (Invitrogen) for two weeks. The G418-selected cells were seeded into wells containing G418-added culture medium in a 96-well plate, and further cultured for 30 days. The exogenous HLA-A*1101 expression in C1R cells was verified by flow cytometric analysis.
(§4) Monocyte-derived dendritic cells (DCs) were used as the antigen-presenting cell to induce a cytotoxic T lymphocyte (CTL) response against peptides presented on human leukocyte antigens (HLAs). As described in the other sections, DCs were generated in vitro (Nakahara S et al., Cancer Res 2003, 63(14): 4112-8). Specifically, peripheral-blood mononuclear cells isolated from healthy volunteers (HLA-A*1101-positive) with the Ficoll-Paque plus solution (Pharmacia) were separated by attaching to plastic tissue culture dishes (Becton Dickinson) and concentrated as a monocyte fraction. The monocyte-concentrated population was cultured in the presence of 1000 IU/ml granulocyte macrophage colony-stimulating factor (R&D System) and 1000 IU/ml interleukin(IL)-4 (R&D System) in an AIM-V medium (Invitrogen) containing 2% heat-inactivated autologous serum (AS). After seven days of culturing, the cytokine-induced DCs were pulsed with 20 micro-g/ml each of the synthesized peptides in an AIM-V medium at 37 degrees C. for three hours in the presence of 3 micro-g/ml beta 2-microglobulin. The generated cells appeared to express on their cell surface DC-associated molecules such as CD80, CD83, CD86 and HLA class II (data not shown). Next, these peptide-pulsed DCs were inactivated, by X-ray irradiation (20 Gy), and mixed in a 1:20 ratio with autologous CD8^+ T cells obtained by positive selection using the CD8 Positive Isolation Kit (Dynal). These culture products were seeded in a 48-well plate (Corning). Each well was made to contain 1.5×10^4 peptide-pulsed DCs, 3×10^5 CD8^+ T cells and 10 ng/ml IL-7 (R&D System) in 0.5 ml of the AIM-V/2% AS medium. Three days later, these culture products were added with a final concentration of 20 IU/ml IL-2 (CHIRON). On day 7 and day 14, T cells were further stimulated with peptide-pulsed autologous DCs. The DCs were prepared every time by the same method as above. On day 21, after the third peptide stimulation, CTLs were examined against the peptide-pulsed C1R-A11 by a human interferon (IFN)-gamma enzyme-linked immunospot (ELISPOT) assay (Tanaka H et al., Br J Cancer 2001, 84(1): 94-9; Umano Y et al., Br J Cancer 2001, 84(8): 1052-7; Uchida N et al., Clin Cancer Res 2004, 10(24): 8577-86; Suda T et al., Cancer Sci 2006, 97(5): 411-9; Watanabe T et al., Cancer Sci 2005, 96(8): 498-506).
as §2

[3] = system: COS7 cells transfected with both KOC1 and HLA-A*1101; experiment: Specific CTL activity against target cells expressing KOC1 and HLA-A*1101; assay type: cell-based, African green monkey; conditions: listed as KOC1-A11-10-14
Description: as §2
A cDNA encoding the open-reading frame of a target gene or HLA-A*1101 was amplified by PCR. The PCR-amplified product was cloned into an expression vector. Either or both of the target gene-expressing vector and the HLA-A*1101-expressing vector were transfected into […], which is a cell line negative for the target gene and HLA, using Lipofectamine 2000 (Invitrogen) following the manufacturer's recommended protocol. Two days after transfection, the transfected cells were harvested using versene (Invitrogen), and used as the target cell for CTL activity assay (5×10^4 cells/well).
The CTL clone established against KOC1-A11-10-14 (SEQ ID NO: 32) was investigated for its ability to recognize target cells expressing KOC1 and the HLA-A*1101 molecule. COS7 cells transfected with both full-length KOC1 and the HLA-A*1101 gene (a specific model of target cells expressing KOC1 and the HLA-A*1101 gene) were prepared as the target cell. COS7 cells transfected with either full-length KOC1 or HLA-A*1101 were prepared as the control.

peptide-pulsed C1R-A01 [4] = experiment: In vitro CTL induction, IFN-gamma ELISPOT assay (HLA-A*0101); assay type: cell-based, human; conditions: CTLs induced with peptide-pulsed DCs from HLA-A*0101-positive volunteers; day 21; vs peptide-pulsed C1R-A01, compared with unpulsed control
Description: as §3, with “(C1R-A01)” for “(C1R-A11)”, “HLA-A*0101” for “HLA-A*1101”
as §4, with “(HLA-A*0101-positive)” for “(HLA-A*1101-positive)”, “2-microglobulin.” for “2-microglobulin. The generated cells appeared to express on their cell surface DC-associated molecules such as CD80, CD83, CD86 and HLA class II (data not shown).”, “inactivated” for “inactivated,”, “CTL activities” for “CTLs”, “C1R-A01 cells” for “C1R-A11 by a human interferon (IFN)-gamma enzyme-linked immunospot (ELISPOT) assay”
(§5) Specifically, peptide-pulsed C1R-A01 (1×10^4 cells/well) was prepared as the stimulator cell. The induced CTLs, i.e., CTL lines and CTL clones, were used as the responder cell. The IFN-gamma ELISPOT assay and IFN-gamma ELISA were performed according to the manufacturer's manual.

peptide-pulsed C1R-A01 [5] = experiment: IFN-gamma ELISA of CTL lines and CTL clone (HLA-A*0101); assay type: cell-based, human; conditions: CTL lines; target cells pulsed with the peptide vs not pulsed; C1R-A01
Description: as §1, with “AS” for “AS (AIM-V/5% AS)”, “cells.” for “cells/flask.”
CTLs were seeded to make 1 or 10 cells/well in 96 round-bottomed microtiter plates (Nalge Nunc International). The CTLs were co-cultured with two types of Mitomycin C-treated human B lymphoblastoid cell lines at 1×10^4 cells in a total of 150 micro-1/well 5% AS-containing AIM-V medium with 30 ng/ml anti-CD3 antibody and 125 IU/ml IL-2. Ten days later, 50 micro-1 of IL-2 was added to the medium to reach a final IL-2 concentration of 125 IU/ml. On day 14, the CTL activity was tested, and the CTL clones were propagated using the same method as described above (Uchida N et al., Clin Cancer Res 2004, 10(24): 8577-86; Suda T et al., Cancer Sci 2006, 97(5): 411-9; Watanabe T et al., Cancer Sci 2005, 96(8): 498-506).
as §5

In the case of “APSDLESIFK (a peptide derived from KOC1) [SEQ ID NO: 32]”, the “IFN-gamma production of CTL clones, ELISA” value (peptide-pulsed C1R-A11 [1]; CTL clones by limiting dilution, peptide-pulsed C1R-A11, listed as KOC1-A11-10-14) is reported as “Potent IFN-gamma production”, the “IFN-gamma production of CTL lines, ELISA” value (peptide-pulsed C1R-A11 [1]; CTL lines, target cells pulsed with the peptide vs not pulsed, C1R-A11) is reported as “potent IFN-gamma production” and the “peptide-specific CTL activity (IFN-gamma production), ELISPOT” value (peptide-pulsed C1R-A11 [2]) is reported as “potent IFN-gamma production”. The “specific CTL activity of CTL clone against target cells expressing KOC1 and HLA-A*1101” value ([3]; COS7 transfected with both full-length KOC1 and HLA-A*1101) was “specific CTL activity; also recorded: potent CTL activity” and the “specific CTL activity of CTL clone against control cells” value ([3]; COS7 transfected with either full-length KOC1 or HLA-A*1101) was “a significant specific CTL activity was not shown; also recorded: a significant specific CTL activity was not detected”.

With “ETAVVNVTY (a peptide derived from KOC1) [SEQ ID NO: 87]” the “peptide-specific CTL activity (IFN-gamma production), ELISPOT” value (peptide-pulsed C1R-A01 [4]) was “potent IFN-gamma production” and the “IFN-gamma production of CTL lines, ELISA” value (peptide-pulsed C1R-A01 [5]) was “potent IFN-gamma production”.
